{"source": "patent EP0753009B1", "about": "“MALARIA PEPTIDES” (Oxxon Pharmaccines Limited, priority 1994, dated 2001)", "note": "Marks after values point to notes of the source that are not given here. Residues, ends and D or L forms follow the SMILES beside them.", "data": [{"system": "HLA matched or autologous B cell line targets pre-pulsed with the peptide", "assay": "Standard CTL chromium release assay with restimulated lymphocytes from malaria-exposed Gambians (secondary CTL response)", "format": "cell-based, humans", "details": "HLA-A2", "experimental": "Peptides shown to bind to a particular HLA class I allele were tested for CTL recognition in assays using lymphocytes from malaria-exposed Gambians, as described previously^1. A minority of peptides, synthesized to correspond to a peptides binding motif were not tested in the relevant assembly assay but tested only for CTL recognition. Cells from 82 adult Gambians and 53 Gambian children, all exposed to malaria, were used in the course of these studies. The children and adults were HLA typed using cellular or molecular techniques as described previously^1. Peptides were incubated with cells either singly, or in pools as described^1 at concentrations of 10-100µM. Peptides could either be left with the cells for the duration of restimulation (as reported^1) or washed off after an hour. Cells were cultured for 1-3 weeks before a standard CTL chromium release assay^1 was performed using HLA matched or autologous B cell line targets pre-pulsed with the peptide to be tested. Peptides were tested either singly or in pools for CTL recognition.", "values": [{"smiles": "CC[C@H](C)[C@H](NC(=O)CN)C(=O)N[C@@H](C)C(=O)NCC(=O)NCC(=O)N[C@@H](CC(C)C)C(=O)N[C@@H](C)C(=O)N[C@@H](CC(C)C)C(=O)N[C@@H](CC(C)C)C(=O)O", "note": "[tr39] (H-GIAGGLALL-OH)", "epitope for a secondary cytotoxic T lymphocyte response (asterisk mark)": "tr39 *"}, {"smiles": "CC[C@H](C)[C@H](NC(=O)[C@H](CCCCN)NC(=O)[C@H](CCC(N)=O)NC(=O)[C@H](CC(C)C)NC(=O)[C@@H](N)Cc1ccc(O)cc1)C(=O)N[C@@H](CCCCN)C(=O)N[C@@H](CC(N)=O)C(=O)N[C@@H](CO)C(=O)N[C@@H](CC(C)C)C(=O)O", "note": "[cp38] (H-YLQKIKNSL-OH)", "epitope for a secondary cytotoxic T lymphocyte response (asterisk mark)": "cp38 *"}, {"smiles": "CC[C@H](C)[C@H](NC(=O)[C@@H](NC(=O)[C@H](CCCCN)NC(=O)[C@H](CC(C)C)NC(=O)[C@@H](N)Cc1ccc(O)cc1)[C@@H](C)O)C(=O)N[C@@H](CCC(N)=O)C(=O)N[C@@H](CC(N)=O)C(=O)N[C@@H](CO)C(=O)N[C@@H](CC(C)C)C(=O)O", "note": "[cp36] (H-YLKTIQNSL-OH)", "epitope for a secondary cytotoxic T lymphocyte response (asterisk mark)": "cp36 *"}, {"smiles": "CC[C@H](C)[C@H](NC(=O)[C@H](CCCCN)NC(=O)[C@H](CCC(N)=O)NC(=O)[C@H](CC(C)C)NC(=O)[C@@H](N)Cc1ccc(O)cc1)C(=O)N[C@@H](CCC(N)=O)C(=O)N[C@@H](CC(N)=O)C(=O)N[C@@H](CO)C(=O)N[C@@H](CC(C)C)C(=O)O", "note": "[cp37] (H-YLQKIQNSL-OH)", "epitope for a secondary cytotoxic T lymphocyte response (asterisk mark)": "cp37 *"}, {"smiles": "CC(C)C[C@H](NC(=O)[C@H](Cc1ccc(O)cc1)NC(=O)[C@H](CCCCN)NC(=O)[C@@H](NC(=O)[C@H](CC(N)=O)NC(=O)CNC(=O)[C@H](CC(C)C)NC(=O)[C@@H](N)Cc1c[nH]cn1)C(C)C)C(=O)N[C@H](C(=O)O)C(C)C", "note": "[tr26] (H-HLGNVKYLV-OH)", "epitope for a secondary cytotoxic T lymphocyte response (asterisk mark)": "tr26 *"}]}]}
